Results reported in patent publication EP4737457A1, “POLYSUBSTITUTED MACROCYCLIC COMPOUND, AND PREPARATION METHOD THEREFOR AND USE THEREOF” (Shenzhen Salubris Pharmaceuticals Co., Ltd., priority 2023, dated 2025).
pIC50: −log10 of the molar value.

Legend:
Human Factor XIa = Human Factor XIa (Homo sapiens, UniProt P03951); experiment: Inhibition of human coagulation Factor XIa by absorbance method (S-2366 substrate, 405 nm); type: biochemical; settings: incubated at 37 °C for 20 minutes; substrate 800 µM; read-out: Recombinant Enzyme FXIa IC50
Experimental: • Enzyme: Human Factor XIa (ENZYME […], Cat. No. HFXIa 1111a) • Substrate: S-2366™ (CHROMOGENIX, Cat. No. 82109039) • Buffer: 145 mM NaCl, 5 mM KCl, 1 mg/mL PEG 8000, 30 mM HEPES, pH 7.4.
Test compounds dissolved in 100% DMSO at 10 mM were diluted with 100% DMSO to concentrations of 1000 µM, 200 µM, 40 µM, 8 µM, 1.6 µM, 0.32 µM, 0.064 µM, 0.0128 µM, 0.00256 µM, and […]. Then 98 µL of FXIa enzyme solution (77.7 ng/mL) was added to each well of a 96-well plate, with 98 µL of buffer added to blank wells instead. Then, 2 µL of compound at different concentrations was added; DMSO was used instead for blank and control wells. The plate was mixed using a plate shaker and incubated at 37 °C for 20 minutes.
Finally, 100 µL of substrate (800 µM) was added to each well, and the absorbance was measured at 405 nm.
Curve fitting was performed using GraphPad Prism software to calculate the IC50 values.

α-Chymotrypsin = molecular target: T1, α-Chymotrypsin (Homo sapiens, UniProt P17538); experiment: Inhibition of Chymotrypsin by absorbance method (S-2586 substrate, 405 nm); type: biochemical; settings: Inhibitory Effect of Compounds on Chymotrypsin; 37 °C for 30 minutes
T1 construct: α-Chymotrypsin (Sigma, Cat. No. C8946); purchased Sigma C8946
Experimental: • Enzyme: α-Chymotrypsin (Sigma, Cat. No. C8946) • Substrate: S-2586™ (Boatman Biotech, Cat. No. B2586) • Buffer: 0.05 M HEPES; 0.145 M NaCl; 5 mM KCl and 0.1% PEG 8000, pH 7.4
Test compounds dissolved in 100% DMSO at 10 mM were diluted with 100% DMSO to concentrations of 100 µM, 33.33 µM, 11.11 µM, 3.704 µM, 1.235 µM, 0.412 µM, 0.137 µM, and 0.046 µM. Then 29.4 µL of Chymotrypsin enzyme solution (20 nM) was added to each well of a 384-well plate, with 29.4 µL of buffer added to blank wells instead. Then, 0.6 µL of compound at different concentrations was added; DMSO was used instead for blank and control wells. The plate was mixed using a plate shaker and incubated at 37 °C for 30 minutes.
Finally, 30 µL of substrate at a concentration of 200 µM was added to each well, and the absorbance was measured at 405 nm.
Table 4. Inhibitory Effect of Compounds on Chymotrypsin

Human Trypsin = molecular target: T2, Human Trypsin (Homo sapiens, UniProt P07477); experiment: Inhibition of Trypsin by absorbance method (S-2222 substrate, 405 nm); type: biochemical; settings: Inhibitory Effect of Compounds on Trypsin; 37 °C for 30 minutes
T2 construct: purchased Sigma T6424
Experimental: • Enzyme: Human Trypsin (Sigma, Cat. No. T6424) • Substrate: S-2222™ (CHROMOGENIX, Cat. No. 82031639) • Buffer: 0.1 M sodium phosphate; 0.2 M NaCl and 0.5% PEG 8000, pH 7.4
Test compounds dissolved in 100% DMSO at 10 mM were diluted with 100% DMSO to concentrations of 10000 µM, 3333 µM, 1111 µM, 370.4 µM, 123.5 µM, 41.2 µM, 13.7 µM, and 4.6 µM. Then, 29.4 µL of Trypsin enzyme solution (0.8 nM) was added to each well of a 384-well plate, with 29.4 µL of buffer added to blank wells instead. Then, 0.6 µL of compound at different concentrations was added; DMSO was used instead for blank and control wells. The plate was mixed using a plate shaker and incubated at 37 °C for 30 minutes.
Finally, 30 µL of substrate at a concentration of 40 µM was added to each well, and the absorbance was measured at 405 nm.
Table 5. Inhibitory Effect of Compounds on Trypsin

Human FIIa = molecular target: T3, Human FIIa (Homo sapiens, UniProt P00734); experiment: Inhibition of coagulation factor FIIa by absorbance method (S-2366 substrate, 405 nm); type: biochemical; settings: Inhibitory Effect of Compounds on Coagulation Factor FIIa; 37 °C for 30 minutes
T3 construct: Human FIIa (Enzyme Research Laboratories, Cat. No. HT 1002a); purchased Enzyme Research Laboratories HT 1002a
Experimental: Then 29.4 μL of FIIa enzyme solution (4 nM) was added to each well of a 384-well plate, with 29.4 μL of buffer added to blank wells instead. Then, 0.6 μL of compound at different concentrations was added; DMSO was used instead for blank and control wells. The plate was mixed using a plate shaker and incubated at 37 °C for 30 minutes. […] Table 6. Inhibitory Effect of Compounds on Coagulation Factor FIIa

Pooled human plasma = experiment: In vitro anticoagulant effect in human plasma (aPTT, EC1.5x); type: biochemical; settings: 37 °C for 10 minutes
Experimental: aPTT (Lot 220106600), Calcium Chloride (Lot 210305600), Needle Rinse Solution (Lot 211101300): produced by Shenzhen Mindray Bio-Medical Electronics Co., Ltd. Pooled human plasma: collected from healthy individuals using disposable venous blood collection tubes (Liuyang Sanli Medical Technology Development Co., Ltd., Lot 211108, sodium citrate 9:1). Blood was collected, centrifuged at room temperature at 3000 rpm for 10 minutes, and the supernatant was collected and stored for use (Lot 20220606).
Test compounds dissolved in 100% DMSO at 10 mM were diluted with 100% DMSO to concentrations of 0.29 µM, 0.59 µM, 1.17 µM, 2.34 µM, 4.69 µM, 9.38 µM, 18.75 µM, and 37.50 µM. Then 99 µL of pooled human plasma was added to each 1.5 mL centrifuge tube, followed by the addition of 1 µL of compound at different concentrations; 1 µL of DMSO was added to the blank control. The tubes were mixed by repeated manual inversion, centrifuged briefly using a mini centrifuge to collect the samples, and then incubated in a thermostatic water bath at 37 °C for 10 minutes with mixing. The aPTT was measured using a fully automated coagulation analyzer according to the preset program.
Curve fitting was performed using GraphPad Prism software to calculate EC1.5x.

[1] = Pharmacokinetic experiment in rats (iv and PO); settings: male, Sprague-Dawley (SD), rat, plasma, 5 mg/kg
Description: (§1) Polyethylene glycol 400 (PEG-400, Lot GORKREUT, Shaen Chemical Technology (Shanghai) Co., Ltd.), DMSO (Lot 20200319, Guangdong Guanghua Sci-Tech Co., Ltd.), normal saline (Lot C20052604, Jiangxi Kelun Pharmaceutical Co., Ltd.). LC-MS instrument (Thermo Fisher Ultimate 3000 UPLC, TSQ QUANTUM ULTRA triple quadrupole mass spectrometer, AB SCIEX 5500 QTARP).
(§2) SD rats: Male, 180-250 g, purchased from Guangdong Vital River Laboratory Animal Technology Co., Ltd.
(§3) The test compound powder was accurately weighed, completely dissolved in DMSO, then PEG-400 was added. The mixture was vortexed and sonicated to mix, followed by the addition of normal saline. The mixture was vortexed and sonicated again to achieve a final concentration of 0.5 mg/mL (DMSO:PEG-400:NS = 5:60:35, V/V/V). The dosing volume was 10 mL/kg for oral gavage and 0.5 mL/kg for intravenous administration.
(§4) After intravenous or oral administration to rats, 200 µL of venous blood was collected at 5 min (not collected for oral group), 15 min, 30 min, 1 h, 2 h, 5 h, 7 h, and 24 h into heparinized EP tubes. The blood was centrifuged at 12,000 rpm for 2 minutes, and the plasma was collected and stored at -80 °C until analysis.
(§5) A precise amount of the test compound was weighed and dissolved in DMSO to 1 mg/mL as a stock solution. An appropriate volume of the compound stock solution was accurately pipetted and diluted with acetonitrile to prepare standard series solutions. 20 µL of each standard series solution was accurately pipetted and added to 180 µL of blank plasma, vortexed to mix, to prepare plasma samples equivalent to plasma concentrations of 1 ng/mL, 3 ng/mL, 10 ng/mL, 30 ng/mL, 100 ng/mL, 300 ng/mL, 1000 ng/mL, 3000 ng/mL, and 5000 ng/mL. Each concentration was analyzed in duplicate to establish the standard curve. 20 µL of plasma sample was taken, and 200 µL of an internal standard (propranolol, 5 ng/mL) in acetonitrile solution was added. The mixture was vortexed and centrifuged at 4000 rpm for 5 minutes. The supernatant was taken for LC-MS analysis. The LC-MS detection conditions were as follows: Chromatographic Column: Waters ACQUITY™ PREMIER HSS T3, 50*2.1 mm, 1.8 µm.
(§6) Mobile phase A: water (0.1% formic acid), mobile phase B: acetonitrile, flow rate: 0.5 mL/min, gradient elution: see Table 2 below.
(§7) After determining the plasma drug concentration by LC-MS, the pharmacokinetic parameters following administration to rats were calculated using the non-compartmental model in WinNonlin 6.1 software.

in vivo = settings: male, Sprague-Dawley (SD), rat
Description: as §1, §2, §3, §4, §5, §6, §7

T1 sequence (P17538 34-164 limits assumed, other chains not shown): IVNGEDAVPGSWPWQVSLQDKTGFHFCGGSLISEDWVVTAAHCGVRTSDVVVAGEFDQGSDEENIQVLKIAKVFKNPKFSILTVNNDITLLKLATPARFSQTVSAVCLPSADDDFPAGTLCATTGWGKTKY
T1 sequence (P17538 167-263 limits assumed, other chains not shown): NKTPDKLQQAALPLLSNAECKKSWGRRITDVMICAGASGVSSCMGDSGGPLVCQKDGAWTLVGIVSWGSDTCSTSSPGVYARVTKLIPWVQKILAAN
Human Factor XIa, sequence (P03951 388-625 limits assumed): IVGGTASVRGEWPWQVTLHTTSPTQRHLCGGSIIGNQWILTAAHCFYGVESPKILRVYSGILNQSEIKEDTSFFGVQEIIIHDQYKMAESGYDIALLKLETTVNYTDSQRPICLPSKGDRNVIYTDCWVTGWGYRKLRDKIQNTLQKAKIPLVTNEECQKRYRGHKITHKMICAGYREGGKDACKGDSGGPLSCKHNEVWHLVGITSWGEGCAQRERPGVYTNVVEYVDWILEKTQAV
Human Factor XIa, sequence (P03951 19-387 partner limits assumed): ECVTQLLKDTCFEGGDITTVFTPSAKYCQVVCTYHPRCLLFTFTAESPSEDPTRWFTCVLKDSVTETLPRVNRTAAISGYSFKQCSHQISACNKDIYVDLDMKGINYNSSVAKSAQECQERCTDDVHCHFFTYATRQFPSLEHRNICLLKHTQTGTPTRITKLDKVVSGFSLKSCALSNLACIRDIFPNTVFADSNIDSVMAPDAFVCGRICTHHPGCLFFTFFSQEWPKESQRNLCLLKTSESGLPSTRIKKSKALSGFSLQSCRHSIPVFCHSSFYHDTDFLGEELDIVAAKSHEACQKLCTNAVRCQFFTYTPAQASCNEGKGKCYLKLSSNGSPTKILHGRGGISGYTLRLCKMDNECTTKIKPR

Structure (SMILES)	pIC50 (Human Factor XIa)	pIC50 (α-Chymotrypsin)	pIC50 (Human Trypsin)	pIC50 (Human FIIa)	bioavailability [1] [%]	Human Plasma APTT 1.5x (Pooled human plasma) [µM]	bioavailability (in vivo) [%]
[2H]C([2H])([2H])n1ncc2c1-c1cc(F)c(F)c(c1)[C@@H](n1cnc(-c3cc(Cl)ccc3-n3cc(Cl)nn3)cc1=O)CCC[C@@H](C)C(=O)N2 [Compound 1, (3S,7R)-3-(4-(5-chloro-2-(4-chloro-1H-1,2,3-triazol-1-yl)phenyl)-6-oxopyrimidin-1(6H)-yl)-2^4,2^5-difluoro-7-methyl-1^1-(methyl-d3)-1^1H-9-aza-1(5,4)-pyrazola-2(1,3)-benzenacyclononaphan-8-one]	9.62	6.39	6.65	5.25	–	–	–
C[C@@H]1CCC[C@H](n2cnc(-c3cc(Cl)ccc3-n3cc(C(F)(F)F)nn3)cc2=O)c2cc(cc(F)c2F)-c2c(cnn2C(F)F)NC1=O [Compound 12, (3R,7R)-3-(4-(5-chloro-2-(4-(trifluoromethyl)-1H-1,2,3-triazol-1-yl)phenyl) -6-oxopyrimidin-1(6H)-yl)-24,2^5-difluoro-7-methyl-1^1-difluoromethyl-1^1H-9-aza-1(5,4)-pyr azola-2(1,3)-benzenacyclononaphan-8-one]	9.51	–	–	–	–	0.28	29.4
[2H]C([2H])([2H])n1ncc2c1-c1cc(cc(F)c1F)[C@@H](n1cnc(-c3cc(Cl)ccc3-n3cc(C(F)(F)F)nn3)cc1=O)CCC[C@@H](C)C(=O)N2 [Compound 18, (3S,7R)-3-(4-(5-chloro-2-(4-(trifluoromethyl)-1H-1,2,3-triazol-1-yl)phenyl) -6-oxopyrimidin-1(6H)-yl)-2^5,2^6-difluoro-7-methyl-1^1-(methyl-d3)-1^1H-9-aza-1(5,4)-pyrazola-2(1,3)-benzenacyclononaphan-8-one]	–	6.65	6.20	4.95	21.9	–	–
[2H]C([2H])([2H])n1ncc2c1-c1cc(cc(F)c1F)[C@@H](n1cnc(-c3cc(Cl)ccc3-n3cc(Cl)nn3)cc1=O)CCC[C@@H](C)C(=O)N2 [Compound 17, (3S,7R)-3-(4-(5-chloro-2-(4-chloro-1H-1,2,3-triazol-1-yl)phenyl)-6-oxopyrimidin-1(6H)-yl)-2^5,2^6-difluoro-7-methyl-1^1-(methyl-d3)-1^1H-9-aza-1(5,4)-pyrazola-2(1,3)-benzenacyclononaphan-8-one]	9.44	6.41	6.49	5.16	59.6	0.04	–

The remaining compounds from weak to strong by pIC50 (α-Chymotrypsin), led by results:

pIC50 (Human Factor XIa)	pIC50 (α-Chymotrypsin)	pIC50 (Human Trypsin)	pIC50 (Human FIIa)	bioavailability [1] [%]	Structure (SMILES)	Human Plasma APTT 1.5x (Pooled human plasma) [µM]	bioavailability (in vivo) [%]
9.21	6.76	6.45	–	19	[2H]C([2H])([2H])n1ncc2c1-c1cc(F)c(F)c(c1)[C@@H](n1cnc(-c3c(-n4cc(C(F)(F)F)nn4)ccc(Cl)c3F)cc1=O)CCC[C@@H](C)C(=O)N2 [Compound 4, (3S,7R)-3-(4-(3-chloro-2-fluoro-6-(4-(trifluoromethyl)-1H-1,2,3-triazol-1-yl)phenyl)-6-oxopyrimidin-1(6H)-yl)-2^4,2^5-difluoro-7-methyl-1^1-(methyl-d3)-1^1H-9-aza-1(5 ,4)-pyrazola-2(1,3)-benzenacyclononaphan-8-one]	0.20	–
9.40	6.79	6.66	5.04	44.5	[2H]C([2H])([2H])n1ncc2c1-c1cc(cc(F)c1F)[C@@H](n1cnc(-c3c(-n4cc(C(F)(F)F)nn4)ccc(Cl)c3F)cc1=O)CCC[C@@H](C)C(=O)N2 [Compound 16, (3S,7R)-3-(4-(3-chloro-2-fluoro-6-(4-(trifluoromethyl)-1H-1,2,3-triazol-1-yl)phenyl)-6-oxopyrimidin-1(6H)-yl)-2^52^6-difluoro-7-methyl-1^1-(methyl-d3)-1^1H-9-aza-1(5,4)-pyrazola-2(1,3)-benzenacyclononaphan-8-one]	0.31	–
–	6.99	6.96	5.67	–	[2H]C([2H])([2H])n1ncc2c1-c1cc(F)cc(c1)[C@@H](n1cnc(-c3cc(Cl)ccc3-n3cc(Cl)nn3)cc1=O)CCC[C@@H](C)C(=O)N2 [Comparative compound 3, reference compound]	–	–
–	7.10	7.08	5.50	–	[2H]C([2H])([2H])n1ncc2c1-c1cccc(c1)[C@@H](n1cnc(-c3cc(Cl)ccc3-n3cc(Cl)nn3)cc1=O)CCC[C@@H](C)C(=O)N2 [Comparative compound 2, reference compound]	–	–
